Experimental data taken from patent US11883387B2, “PqsR inverse agonists” (HELMHOLTZ-ZENTRUM FÜR INFEKTIONSFORSCHUNG GMBH, priority 2018, dated 2024).

Legend:
PqsR = PqsR (Pseudomonas aeruginosa, UniProt Q9I4X0); experiment: E. coli based β-galactosidase reporter gene assay (PqsR inverse agonistic activity); format: cell-based; set-up: expressed in transfected cells; host or cells: Escherichia coli DH5α
Protocol: Inhibition of pqsR-dependent gene expression of test compounds was determined in an E. coli based β-galactosidase reporter gene assay.[19] Escherichia coli DH5α was transfected with pEAL08-2 plasmid encoding pqsR under control of promoter tac and β-galactosidase reporter gene lacZ under control of promoter pqsA. Antagonistic effects of compounds were evaluated in the presence of/in competition to 50 nM PQS. A positive control was used to ensure the reliability of individual assays. First, PQS was diluted in methanol and added to the wells of a glass coated 96-deep-well plate, and the solvent was evaporated. Then, compounds were added in 5 μL DMSO to final concentrations of 0.001-10 μM. Overnight cultures of E. coli DH5a×pEAL08-2 were diluted 1:100 in LB medium with ampicillin (50 μg/ml) and incubated at 37° C. with shaking until it reached an OD600 of 0.2. Finally, 995 μL of culture was added to each well and the p-galactosidase activity was determined by ortho-nitrophenyl-p-galactoside conversion in permeabilized cells after a 2.5 h incubation period (37° C., 180 rpm). OD600, OD420, and OD550 were measured using POLARstar Omega (BMG Labtech, Ortenberg, Germany), and the activity was expressed as ratio of the slope of β-galactosidase activity between basal control (no PQS) and solvent control. IC50 values of antagonists were determined by variation of the concentration of the test compounds.

[1] = test system: P. aeruginosa pyocyanin production; experiment: Pyocyanin assay; format: cell-based, P. aeruginosa PA14; details: Pseudomonas aeruginosa, PA14, 16 h, read-out: IC50-value towards pyocyanin production, PA14 in PPGAS medium, 16 h
Protocol: Inhibition of P. aeruginosa pyocyanin production by compounds was determined photometrically as described before.[20] In short, an overnight culture of PA14 in PPGAS medium was washed, diluted in medium to a start OD600 of 0.02, and incubated for 16 h (37° C., 200 rpm, relative humidity 75%) in the presence of test compounds. Then, cultures were extracted with chloroform and re-extracted with 0.2 M HCl. Protonated red colored pyocyanin was determined by measuring OD520 and normalizing to OD600.

Chain of PqsR (Q9I4X0 whole entry): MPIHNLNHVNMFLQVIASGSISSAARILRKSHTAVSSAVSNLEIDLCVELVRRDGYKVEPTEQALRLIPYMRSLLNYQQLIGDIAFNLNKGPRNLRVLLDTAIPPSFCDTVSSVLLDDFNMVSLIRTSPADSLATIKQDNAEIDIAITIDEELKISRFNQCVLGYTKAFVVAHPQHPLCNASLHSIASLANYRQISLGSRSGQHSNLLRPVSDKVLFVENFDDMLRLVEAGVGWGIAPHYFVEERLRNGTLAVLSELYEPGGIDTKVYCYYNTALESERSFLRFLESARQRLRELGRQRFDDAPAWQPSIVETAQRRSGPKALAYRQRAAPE

Row | Structure (SMILES) | IC50 (PqsR) | IC50 [1]
1 | FC(F)(F)c1cc(NCc2cn(-c3ccc(Cl)c(Cl)c3)nn2)ccn1 [Compound 005, N-((1-(3,4-Dichlorophenyl)-1H-1,2,3-triazol-4-yl)methyl)-2-(trifluoromethyl)pyridin-4-amine] | ≤ 50 nM | 251 to 1000 nM
2 | COc1ccc(-n2cc(CNc3ccnc(C(F)(F)F)c3)nn2)cc1 [Compound 006, N-((1-(4-Methoxyphenyl)-1H-1,2,3-triazol-4-yl)methyl)-2-(trifluoromethyl)pyridin-4-amine] | 51 to 250 nM | 1000 to 5000 nM
3 | CSc1ccc(-n2cc(CNc3ccnc(C(F)(F)F)c3)nn2)cc1 [Compound 016, N-((1-(4-(methylthio)phenyl)-1H-1,2,3-triazol-4-yl)methyl)-2-(trifluoromethyl)pyridin-4-amine] | ≤ 50 nM | 1000 to 5000 nM
4 | FC(F)(F)c1cc(NCc2cn(-c3ccc(Nc4ccccc4)cc3)nn2)ccn1 [Compound 018, N-((1-(4-(Phenylamino)phenyl)-1H-1,2,3-triazol-4-yl)methyl)-2-(trifluoromethyl)pyridin-4-amine] | ≤ 50 nM | 251 to 1000 nM
5 | FC(F)(F)c1cncc(NCc2cn(-c3ccc(Oc4ccccc4)cc3)nn2)c1 [Compound 021, N-((1-(4-phenoxyphenyl)-1H-1,2,3-triazol-4-yl)methyl)-5-(trifluoromethyl)pyridin-3-amine] | ≤ 50 nM | 1000 to 5000 nM
6 | FC(F)(F)c1cc(NCc2cn(-c3ccc(Cc4ccncc4)cc3)nn2)ccn1 [Compound 025, N-((1-(4-(Pyridin-4-ylmethyl)phenyl)-1H-1,2,3-triazol-4-yl)methyl)-2-(trifluoromethyl)pyridin-4-amine] | ≤ 50 nM | 251 to 1000 nM
7 | COc1ccc(-n2cc(CNc3ccnc(C(F)(F)F)c3)nn2)cc1F [Compound 026, N-((1-(3-Fluoro-4-methoxyphenyl)-1H-1,2,3-triazol-4-yl)methyl)-2-(trifluoromethyl)pyridin-4amine] | ≤ 50 nM | 1000 to 5000 nM
8 | Clc1cc(NCc2cn(-c3ccc(Oc4ccccc4)cc3)nn2)ccn1 [Compound 049, 2-Chloro-N-((1-(4-phenoxyphenyl)-1H-1,2,3-triazol-4-yl)methyl)pyridin-4-amine] | ≤ 50 nM | 251 to 1000 nM
9 | N#Cc1cc(NCc2cn(-c3ccc(Oc4ccccc4)cc3)nn2)cc(C#N)n1 [Compound 052, 4-(((1-(4-Phenoxyphenyl)-1H-1,2,3-triazol-4-yl)methyl)amino)pyridine-2,6-dicarbonitrile] | ≤ 50 nM | ≤ 250 nM
10 | FC(F)(F)c1cc(NCc2cn(-c3ccc(Oc4ccccc4)c(Cl)c3)nn2)ccn1 [Compound 053, N-((1-(3-Chloro-4-phenoxyphenyl)-1H-1,2,3-triazol-4-yl)methyl)-2-(trifluoromethyl)pyridin-4-amine] | ≤ 50 nM | ≤ 250 nM
11 | FC(F)(F)c1nccc(SCc2cn(-c3ccc(Oc4ccccc4)cc3)nn2)n1 [Compound 061, 4-(((1-(4-phenoxyphenyl)-1H-1,2,3-triazol-4-yl)methyl)thio)-2-(trifluoromethyl)pyrimidine] | ≤ 50 nM | 251 to 1000 nM
12 | FC(F)(F)Oc1ccc(-n2cc(CSc3ccnc(C(F)(F)F)c3)nn2)cc1Cl [Compound 063, 4-(((1-(3-chloro-4-(trifluoromethoxy)phenyl)-1H-1,2,3-triazol-4-yl)methyl)thio)-2-(trifluoromethyl)pyridine] | 51 to 250 nM | 1000 to 5000 nM
13 | Nc1cc(SCc2cn(-c3ccc(Oc4ccccc4)cc3)nn2)nc(C(F)(F)F)n1 [Compound 065, 6-(((1-(4-phenoxyphenyl)-1H-1,2,3-triazol-4-yl)methyl)thio)-2-(trifluoromethyl)pyrimidin-4-amine] | ≤ 50 nM | ≤ 250 nM
14 | CC(C)Oc1ccc(-c2ncc(CNc3ccnc(C#N)c3)s2)cc1Cl [Compound 091, 4-(((2-(3-Chloro-4-isopropoxyphenyl)thiazol-5-yl)methyl)amino)picolinonitrile] | ≤ 50 nM | ≤ 250 nM
15 | Fc1cccc(Oc2ccc3[nH]c(CSc4ccnc(C(F)(F)F)c4)nc3c2)c1 [Compound 130, 5-(3-Fluorophenoxy)-2-(((2-(trifluoromethyl)pyridin-4-yl)thio)methyl)-1H-benzo[d]imidazole] | ≤ 50 nM | 
16 | FC(F)(F)c1cc(OCc2nc3ccc(Oc4ccccc4)cc3o2)ccn1 [Compound 133, 6-Phenoxy-2-(((2-(trifluoromethyl)pyridin-4-yl)oxy)methyl)benzo[d]oxazole] | 251 to 1000 nM | 

Row | Structure (SMILES) | IC50 (PqsR) | IC50 [1]
17 | FC(F)(F)c1cc(SCc2ccn(-c3ccc(Cl)cc3)n2)ccn1 [Compound 135, 4-(((1-(4-chlorophenyl)-1H-pyrazol-3-yl)methyl)thio)-2-(trifluoromethyl)-pyridine] | 251 to 1000 nM | 
18 | FC(F)(F)c1cc(SCc2nnc(-c3ccc(Cl)cc3)o2)ccn1 [Compound 136, 2-(4-Chlorophenyl)-5-(((2-(trifluoromethyl)pyridin-4-yl)thio)methyl)-1,3,4-oxadiazole] | 251 to 1000 nM | 
19 | FC(F)(F)c1cc(SCc2nc(-c3ccc(Cl)cc3)no2)ccn1 [Compound 137, 3-(4-Chlorophenyl)-5-(((2-(trifluoromethyl)pyridin-4-yl)thio)methyl)-1,2,4-oxadiazole] | 251 to 1000 nM | 
20 | FC(F)(F)c1cc(SCc2nnn(-c3ccc(Cl)cc3)n2)ccn1 [Compound 138, 4-(((2-(4-Chlorophenyl)-2H-tetrazol-5-yl)methyl)thio)-2-(trifluoromethyl)pyridine] | 251 to 1000 nM | 
21 | CC(C)Oc1ccc(-n2cc(CNc3cc(Cl)nc(C(F)(F)F)c3)nn2)cc1 [Compound 140, 2-chloro-N-((1-(4-isopropoxyphenyl)-1H-1,2,3-triazol-4-yl)methyl)-6-(trifluoromethyl)pyridin-4-amine] |  | ≤ 250 nM
22 | Fc1cccc2c1cnn2-c1ccc(-n2cc(CNc3cc(Cl)nc(C(F)(F)F)c3)nn2)cc1 [Compound 146, 2-chloro-N-((1-(4-(4-fluoro-1H-indazol-1-yl)phenyl)-1H-1,2,3-triazol-4-yl)methyl)-6-(trifluoromethyl)pyridin-4-amine] |  | 251 to 1000 nM
23 | FC(F)(F)c1cc(NCc2cn(-c3ccc(-n4ncc5ncccc54)cc3)nn2)ccn1 [Compound 149, N-((1-(4-(1H-pyrazolo[4,3-b]pyridin-1-yl)phenyl)-1H-1,2,3-triazol-4-yl)methyl)-2-(trifluoromethyl)pyridin-4-amine] | ≤ 50 nM | 
24 | FC(F)(F)c1cc(NCc2cn(-c3ccc(-n4ncc5ccccc54)cc3)nn2)cc(Cl)n1 [Compound 150, N-((1-(4-(1H-indazol-1-yl)phenyl)-1H-1,2,3-triazol-4-yl)methyl)-2-chloro-6-(trifluoromethyl)pyridin-4-amine] |  | 251 to 1000 nM
25 | FC(F)(F)c1cc(NCc2cn(-c3ccc(-n4ncc5ccncc54)cc3)nn2)cc(Cl)n1 [Compound 151, N-((1-(4-(1H-pyrazolo[3,4-c]pyridin-1-yl)phenyl)-1H-1,2,3-triazol-4-yl)methyl)-2-chloro-6-(trifluoromethyl)pyridin-4-amine] |  | 251 to 1000 nM
26 | CC(C)Oc1ccc(-c2ncc(CNc3cc(C#N)nc(C(F)(F)F)c3)s2)cc1 [Compound 163, 4-(((2-(4-Isopropoxyphenyl)thiazol-5-yl)methyl)amino)-6-(trifluoromethyl)picolinonitrile] |  | ≤ 250 nM
27 | Fc1ccccc1Oc1ccc(-c2ncc(CNc3cc(Cl)nc(C(F)(F)F)c3)cn2)cc1 [Compound 167, 2-chloro-N-((2-(4-(2-fluorophenoxy)phenyl)pyrimidin-5-yl)methyl)-6-(trifluoromethyl)pyridin-4-amine] |  | ≤ 250 nM
28 | CC(C)Oc1ccc(-c2ncc(CNc3cc(Cl)nc(C(F)(F)F)c3)cn2)cc1 [Compound 168, 2-chloro-N-((2-(4-isopropoxyphenyl)pyrimidin-5-yl)methyl)-6-(trifluoromethyl)pyridin-4-amine] |  | ≤ 250 nM
29 | O=[N+]([O-])c1cc(-c2ncc(CNc3cc(Cl)nc(C(F)(F)F)c3)cn2)ccc1Cl [Compound 169, 2-chloro-N-((2-(4-chloro-3-nitrophenyl)pyrimidin-5-yl)methyl)-6-(trifluoromethyl)pyridin-4-amine] |  | ≤ 250 nM
30 | Fc1cccc(Oc2ccc3[nH]c(CSc4ccnc(C(F)(F)F)c4)nc3c2)c1 [Compound 170, 5-(3-fluorophenoxy)-2-(((2-(trifluoromethyl)pyridin-4-yl)thio)methyl)-1H-benzo[d]imidazole] |  | ≤ 250 nM
31 | Nc1cc(SCc2nc3cc(Oc4cccc(F)c4)ccc3[nH]2)nc(C(F)(F)F)n1 [Compound 171, 6-(((5-(3-fluorophenoxy)-1H-benzo[d]imidazol-2-yl)methyl)thio)-2-(trifluoromethyl)pyrimidin-4-amine] |  | ≤ 250 nM
